{
  "source": "paper PMC5218480",
  "about": "(PLoS ONE, 2017)",
  "system": "MV-4-11 cells",
  "assay": "Gene expression microarray analysis (Affymetrix PrimeView) and GSEA",
  "type": "cell-based, human",
  "parameters": "RFU PODN (11730768_x_at) / Fold change /veh PODN (11730768_x_at) / RFU LINC00158 (11744669_a_at) / Fold change /veh LINC00158 (11744669_a_at) / RFU DUSP10 (11751237_a_at) / Fold change /veh DUSP10 (11751237_a_at) / RFU ID3 (11757404_x_at) / Fold change /veh ID3 (11757404_x_at) / RFU PLEKHG5 (11737974_s_at) / Fold change /veh PLEKHG5 (11737974_s_at) / RFU LRRC4B (11730491_at) / Fold change /veh LRRC4B (11730491_at) / RFU GIMAP4 (11747438_a_at) / Fold change /veh GIMAP4 (11747438_a_at) / RFU KRT8 (11758183_x_at) / Fold change /veh KRT8 (11758183_x_at) / RFU CNN1 (11734310_a_at) / Fold change /veh CNN1 (11734310_a_at) / RFU VPS37D (11726825_at) / Fold change /veh VPS37D (11726825_at) / RFU C10orf10 (11716522_x_at) / Fold change /veh C10orf10 (11716522_x_at) / RFU KIR2DL2 /// KIR2DL4 /// KIR2DL5A /// KIR2DL5B /// KIR2DS1 /// KIR2DS2 /// KIR2DS3 /// KIR2DS4 /// KIR3DL3 /// KIR3DL3 /// KIR3DS1 (11738374_at) / Fold change /veh KIR2DL2 /// KIR2DL4 /// KIR2DL5A /// KIR2DL5B /// KIR2DS1 /// KIR2DS2 /// KIR2DS3 /// KIR2DS4 /// KIR3DL3 /// KIR3DL3 /// KIR3DS1 (11738374_at) / RFU C1QL1 (11718748_at) / Fold change /veh C1QL1 (11718748_at) / RFU TMPRSS4 (11747572_a_at) / Fold change /veh TMPRSS4 (11747572_a_at) / RFU HAMP (11756126_x_at) / Fold change /veh HAMP (11756126_x_at) / RFU RNFT2 (11725882_a_at) / Fold change /veh RNFT2 (11725882_a_at) / RFU NR4A2 (11747474_a_at) / Fold change /veh NR4A2 (11747474_a_at) / RFU ABCC12 (11746883_a_at) / Fold change /veh ABCC12 (11746883_a_at) / RFU TMEM136 (11760407_x_at) / Fold change /veh TMEM136 (11760407_x_at) / RFU CLDN22 /// WWC2 (11732394_at) / Fold change /veh CLDN22 /// WWC2 (11732394_at) / RFU HLA-DPB1 (11760878_x_at) / Fold change /veh HLA-DPB1 (11760878_x_at) / RFU SPINT1 (11716480_a_at) / Fold change /veh SPINT1 (11716480_a_at) / RFU GAP43 (11754022_s_at) / Fold change /veh GAP43 (11754022_s_at) / RFU A4GNT (11735810_at) / Fold change /veh A4GNT (11735810_at) / RFU PRB3 (11715151_x_at) / Fold change /veh PRB3 (11715151_x_at) / RFU TUBB4B (11761932_at) / Fold change /veh TUBB4B (11761932_at) / RFU CAPN14 (11732068_a_at) / Fold change /veh CAPN14 (11732068_a_at) / RFU TMCC2 (11721928_a_at) / Fold change /veh TMCC2 (11721928_a_at) / RFU IRGQ (11745062_a_at) / Fold change /veh IRGQ (11745062_a_at) / RFU FAM174B (11720279_a_at) / Fold change /veh FAM174B (11720279_a_at) / RFU TMPRSS4 (11748680_a_at) / Fold change /veh TMPRSS4 (11748680_a_at) / RFU FAM212B (11763350_a_at) / Fold change /veh FAM212B (11763350_a_at) / RFU PLEKHG5 (11743358_a_at) / Fold change /veh PLEKHG5 (11743358_a_at) / RFU ZSCAN30 (11745921_a_at) / Fold change /veh ZSCAN30 (11745921_a_at) / RFU CMKLR1 (11741424_a_at) / Fold change /veh CMKLR1 (11741424_a_at) / RFU LOC101060620 /// MAPK8IP1 (11723275_at) / Fold change /veh LOC101060620 /// MAPK8IP1 (11723275_at) / RFU SPTSSB (11747773_x_at) / Fold change /veh SPTSSB (11747773_x_at) / RFU PRSS12 (11739890_at) / Fold change /veh PRSS12 (11739890_at) / RFU BIN1 (11741810_x_at) / Fold change /veh BIN1 (11741810_x_at) / RFU WNT11 (11732464_a_at) / Fold change /veh WNT11 (11732464_a_at) / RFU C10orf10 (11716521_a_at) / Fold change /veh C10orf10 (11716521_a_at) / RFU C5orf56 (11738089_at) / Fold change /veh C5orf56 (11738089_at) / RFU CYB561 (11721691_x_at) / Fold change /veh CYB561 (11721691_x_at) / RFU ANKRD19P (11752326_a_at) / Fold change /veh ANKRD19P (11752326_a_at) / RFU OR2T12 /// OR2T33 /// OR2T8 (11738714_s_at) / Fold change /veh OR2T12 /// OR2T33 /// OR2T8 (11738714_s_at) / RFU VCAN (11748164_a_at) / Fold change /veh VCAN (11748164_a_at) / RFU JSRP1 (11732532_at) / Fold change /veh JSRP1 (11732532_at) / RFU KRTAP10-11 (11738290_x_at) / Fold change /veh KRTAP10-11 (11738290_x_at) / RFU MYO3A (11730013_a_at) / Fold change /veh MYO3A (11730013_a_at) / RFU EBF3 (11725865_a_at) / Fold change /veh EBF3 (11725865_a_at) / RFU CAMK2N1 (11719241_x_at) / Fold change /veh CAMK2N1 (11719241_x_at) / RFU C5orf56 (11738088_a_at) / Fold change /veh C5orf56 (11738088_a_at) / RFU OLFML3 (11715873_a_at) / Fold change /veh OLFML3 (11715873_a_at) / RFU LOC100653217 /// NTM (11731650_a_at) / Fold change /veh LOC100653217 /// NTM (11731650_a_at) / RFU MAPK11 (11762145_a_at) / Fold change /veh MAPK11 (11762145_a_at) / RFU FIZ1 (11724087_x_at) / Fold change /veh FIZ1 (11724087_x_at) / RFU OASL (11726364_x_at) / Fold change /veh OASL (11726364_x_at) / RFU SOX15 (11748057_x_at) / Fold change /veh SOX15 (11748057_x_at) / RFU CD79A (11719716_a_at) / Fold change /veh CD79A (11719716_a_at) / RFU HIST1H1D (11736915_at) / Fold change /veh HIST1H1D (11736915_at) / RFU CASKIN2 (11723855_a_at) / Fold change /veh CASKIN2 (11723855_a_at) / RFU LOC730098 (11760151_x_at) / Fold change /veh LOC730098 (11760151_x_at) / RFU OR4N2 (11742367_at) / Fold change /veh OR4N2 (11742367_at) / RFU PRRT2 (11749266_a_at) / Fold change /veh PRRT2 (11749266_a_at) / RFU SNX32 (11753110_a_at) / Fold change /veh SNX32 (11753110_a_at) / RFU CDHR5 (11726645_a_at) / Fold change /veh CDHR5 (11726645_a_at) / RFU RCAN1 (11760418_a_at) / Fold change /veh RCAN1 (11760418_a_at) / RFU FAM167A (11723789_a_at) / Fold change /veh FAM167A (11723789_a_at) / RFU FAM26E (11764081_at) / Fold change /veh FAM26E (11764081_at) / RFU ISYNA1 (11749810_s_at) / Fold change /veh ISYNA1 (11749810_s_at) / RFU ACY1 (11761880_at) / Fold change /veh ACY1 (11761880_at) / RFU 11764098_at / Fold change /veh 11764098_at / RFU SAMD14 (11745864_x_at) / Fold change /veh SAMD14 (11745864_x_at) / RFU NPB (11741838_a_at) / Fold change /veh NPB (11741838_a_at) / RFU TMPRSS6 (11731388_a_at) / Fold change /veh TMPRSS6 (11731388_a_at) / RFU KRTAP10-2 (11738614_at) / Fold change /veh KRTAP10-2 (11738614_at) / RFU ARHGAP8 /// PRR5-ARHGAP8 (11727945_x_at) / Fold change /veh ARHGAP8 /// PRR5-ARHGAP8 (11727945_x_at) / RFU KRTAP5-7 /// NADSYN1 (11734609_at) / Fold change /veh KRTAP5-7 /// NADSYN1 (11734609_at) / RFU RASL12 (11751679_a_at) / Fold change /veh RASL12 (11751679_a_at) / RFU CDKN2B (11736163_a_at) / Fold change /veh CDKN2B (11736163_a_at) / RFU PRF1 (11729649_at) / Fold change /veh PRF1 (11729649_at) / RFU, ZNF638 /// ZNF638-IT1 / Fold change vs veh, ZNF638 /// ZNF638-IT1 / RFU, PANK3 / Fold change vs veh, PANK3 / RFU, SH3YL1 / Fold change vs veh, SH3YL1 / RFU, ZEB2 / Fold change vs veh, ZEB2 / RFU, NRIP1 / Fold change vs veh, NRIP1 / RFU, PTTG1IP / Fold change vs veh, PTTG1IP / RFU, CAPN2 / Fold change vs veh, CAPN2 / RFU, MED14 / Fold change vs veh, MED14 / RFU, SNORA58 / Fold change vs veh, SNORA58 / RFU, C1orf63 / Fold change vs veh, C1orf63 / RFU, LRRFIP1 / Fold change vs veh, LRRFIP1 / RFU, NDUFAF7 / Fold change vs veh, NDUFAF7 / RFU, SLC12A2 / Fold change vs veh, SLC12A2 / RFU, IBTK / Fold change vs veh, IBTK / RFU, ESF1 / Fold change vs veh, ESF1 / Fold change vs veh, TMEM50B / RFU, TAOK1 / Fold change vs veh, TAOK1 / RFU, ACBD3 / Fold change vs veh, ACBD3 / RFU, TMA16 / Fold change vs veh, TMA16 / RFU, RWDD3 / Fold change vs veh, RWDD3 / RFU, BCAT1 / Fold change vs veh, BCAT1 / RFU, EDEM3 / Fold change vs veh, EDEM3 / RFU, TMEM33 / Fold change vs veh, TMEM33 / RFU, WDR75 / Fold change vs veh, WDR75 / RFU, AHCTF1 / Fold change vs veh, AHCTF1 / RFU, TFRC / Fold change vs veh, TFRC / RFU, ZDHHC17 / Fold change vs veh, ZDHHC17 / RFU, NOM1 / Fold change vs veh, NOM1 / RFU, ARL8B / Fold change vs veh, ARL8B / RFU, ZBTB11 / Fold change vs veh, ZBTB11 / RFU, TAMM41 / Fold change vs veh, TAMM41 / RFU, KIAA1704 /// LOC100996395 / Fold change vs veh, KIAA1704 /// LOC100996395 / RFU, ING1 / Fold change vs veh, ING1 / RFU, TRMT61B / Fold change vs veh, TRMT61B / RFU, FUBP3 / Fold change vs veh, FUBP3 / RFU, TP53 / Fold change vs veh, TP53 / RFU, TNKS2 / Fold change vs veh, TNKS2 / RFU, ZFP14 / Fold change vs veh, ZFP14 / RFU, ACTR2 / Fold change vs veh, ACTR2 / RFU, PPP3R1 / Fold change vs veh, PPP3R1 / RFU, PIK3R1 / Fold change vs veh, PIK3R1 / RFU, HNRNPA1 / Fold change vs veh, HNRNPA1 / RFU, RNF170 / Fold change vs veh, RNF170 / RFU, ZNF28 / Fold change vs veh, ZNF28 / RFU, RNGTT / Fold change vs veh, RNGTT / RFU, OGT / Fold change vs veh, OGT / RFU, BRD1 / Fold change vs veh, BRD1 / RFU, MARS / Fold change vs veh, MARS / RFU, ZNF655 / Fold change vs veh, ZNF655 / RFU, FAHD1 / Fold change vs veh, FAHD1 / RFU, BDP1 / Fold change vs veh, BDP1 / RFU, LRRCC1 / Fold change vs veh, LRRCC1 / RFU, ARID1A / Fold change vs veh, ARID1A / RFU, ZNF146 / Fold change vs veh, ZNF146 / RFU, ZNF330 / Fold change vs veh, ZNF330 / RFU, GPN3 / Fold change vs veh, GPN3 / RFU, C9orf123 / Fold change vs veh, C9orf123 / RFU, N4BP2L2 / Fold change vs veh, N4BP2L2 / RFU, ARFIP1 / Fold change vs veh, ARFIP1 / RFU, FAM179B / Fold change vs veh, FAM179B / RFU, BCL10 / Fold change vs veh, BCL10 / RFU, UHRF1BP1L / Fold change vs veh, UHRF1BP1L / RFU, BET1 / Fold change vs veh, BET1 / RFU, CNOT2 / Fold change vs veh, CNOT2 / RFU, ZNF268 / Fold change vs veh, ZNF268 / Fold change vs veh, ZNF507 / RFU, DGCR2 / Fold change vs veh, DGCR2 / RFU, WDSUB1 / Fold change vs veh, WDSUB1 / Fold change vs veh, HSP90B1 /// MIR3652 / RFU, ADSS / Fold change vs veh, ADSS / RFU, GK / Fold change vs veh, GK / RFU, ZNF148 / Fold change vs veh, ZNF148 / RFU, TAF9 / Fold change vs veh, TAF9 / RFU, SLC1A5 / Fold change vs veh, SLC1A5 / RFU, SLMO2 / Fold change vs veh, SLMO2 / RFU, ABCC4 / Fold change vs veh, ABCC4 / RFU, LOC101060439 /// RAP1B / Fold change vs veh, LOC101060439 /// RAP1B / RFU, RFX7 / Fold change vs veh, RFX7 / RFU, GTPBP10 / Fold change vs veh, GTPBP10 / RFU, CNEP1R1 / Fold change vs veh, CNEP1R1 / RFU, BIVM-ERCC5 /// ERCC5 / Fold change vs veh, BIVM-ERCC5 /// ERCC5 / RFU, ILF3 / Fold change vs veh, ILF3 / RFU 11762660_at / Fold change /veh 11762660_at / RFU VCAN (11757783_s_at) / Fold change /veh VCAN (11757783_s_at) / RFU DDX43 (11728927_at) / Fold change /veh DDX43 (11728927_at) / RFU KRT8 (11758188_x_at) / Fold change /veh KRT8 (11758188_x_at) / RFU NKD1 (11759106_at) / Fold change /veh NKD1 (11759106_at) / RFU SRD5A1 (11742802_a_at) / Fold change /veh SRD5A1 (11742802_a_at) / RFU TPSAB1 /// TPSB2 (11721975_s_at) / Fold change /veh TPSAB1 /// TPSB2 (11721975_s_at) / RFU GSTM3 (11746129_a_at) / Fold change /veh GSTM3 (11746129_a_at) / RFU IL23R (11737362_x_at) / Fold change /veh IL23R (11737362_x_at) / RFU TMEM51 (11727254_a_at) / Fold change /veh TMEM51 (11727254_a_at) / RFU PIWIL2 (11732686_x_at) / Fold change /veh PIWIL2 (11732686_x_at) / RFU ORM1 (11744905_x_at) / Fold change /veh ORM1 (11744905_x_at) / RFU CCDC152 (11743942_at) / Fold change /veh CCDC152 (11743942_at) / RFU ECM1 (11717891_a_at) / Fold change /veh ECM1 (11717891_a_at) / RFU IL23R (11748794_a_at) / Fold change /veh IL23R (11748794_a_at) / RFU TNFAIP8L3 (11732012_x_at) / Fold change /veh TNFAIP8L3 (11732012_x_at) / RFU MBOAT4 (11741988_at) / Fold change /veh MBOAT4 (11741988_at) / RFU 11764193_at / Fold change /veh 11764193_at / RFU TMEM53 (11763286_at) / Fold change /veh TMEM53 (11763286_at) / RFU MAGEB2 (11727129_at) / Fold change /veh MAGEB2 (11727129_at) / RFU TMEM200A (11744735_a_at) / Fold change /veh TMEM200A (11744735_a_at) / RFU CCDC152 (11751479_a_at) / Fold change /veh CCDC152 (11751479_a_at) / RFU FAM211A (11726209_a_at) / Fold change /veh FAM211A (11726209_a_at) / RFU RGS16 (11746705_a_at) / Fold change /veh RGS16 (11746705_a_at) / RFU VCAN (11755009_s_at) / Fold change /veh VCAN (11755009_s_at) / RFU RHOB (11743442_s_at) / Fold change /veh RHOB (11743442_s_at) / RFU RGS16 (11720943_a_at) / Fold change /veh RGS16 (11720943_a_at) / RFU RGS16 (11720944_at) / Fold change /veh RGS16 (11720944_at) / RFU, VPS4B / Fold change vs veh, VPS4B / RFU, CREB1 / Fold change vs veh, CREB1 / RFU, DNAJC13 / Fold change vs veh, DNAJC13 / RFU, GNAQ / Fold change vs veh, GNAQ / RFU, CDK5R1 / Fold change vs veh, CDK5R1 / RFU, ZRANB3 / Fold change vs veh, ZRANB3 / RFU, CUL4A / Fold change vs veh, CUL4A / RFU, CCNY / Fold change vs veh, CCNY / RFU, UFL1 / Fold change vs veh, UFL1 / RFU, COG3 / Fold change vs veh, COG3 / RFU, DIAPH2 / Fold change vs veh, DIAPH2 / RFU, SKA2 / Fold change vs veh, SKA2 / RFU, AFF3 / Fold change vs veh, AFF3 / RFU, LMF1 / Fold change vs veh, LMF1 / RFU, IPO11 / Fold change vs veh, IPO11 / RFU, DFFB / Fold change vs veh, DFFB / RFU, FOXP1 / Fold change vs veh, FOXP1 / RFU, CARD8 / Fold change vs veh, CARD8 / RFU, STRN3 / Fold change vs veh, STRN3 / RFU, ADK / Fold change vs veh, ADK / RFU, RASSF2 / Fold change vs veh, RASSF2 / RFU, WIPF1 / Fold change vs veh, WIPF1 / RFU, LARP1B / Fold change vs veh, LARP1B / RFU, RASA1 / Fold change vs veh, RASA1 / RFU, RB1 / Fold change vs veh, RB1 / RFU, PPFIA1 / Fold change vs veh, PPFIA1 / RFU, MAT2A / Fold change vs veh, MAT2A / RFU, CCT5 / Fold change vs veh, CCT5 / RFU, WDR92 / Fold change vs veh, WDR92 / RFU, CUX1 / Fold change vs veh, CUX1 / RFU, TTC7A / Fold change vs veh, TTC7A / RFU, TMEM135 / Fold change vs veh, TMEM135 / RFU, DEPTOR / Fold change vs veh, DEPTOR / RFU, CPM / Fold change vs veh, CPM / RFU, DNAJB6 / Fold change vs veh, DNAJB6 / RFU, CACNA2D3 / Fold change vs veh, CACNA2D3 / RFU, DTX4 / Fold change vs veh, DTX4 / RFU, TFCP2 / Fold change vs veh, TFCP2 / RFU, GMCL1 /// GMCL1P1 / Fold change vs veh, GMCL1 /// GMCL1P1 / RFU, AEBP2 / Fold change vs veh, AEBP2 / RFU, SNHG1 /// SNORD22 /// SNORD25 /// SNORD26 /// SNORD27 /// SNORD28 /// SNORD29 /// SNORD31 / Fold change vs veh, SNHG1 /// SNORD22 /// SNORD25 /// SNORD26 /// SNORD27 /// SNORD28 /// SNORD29 /// SNORD31 / Fold change (Aza/veh), C12orf56 (ProbeSet 11735607_a_at) / Fold change (ACY-1035/veh), C12orf56 (ProbeSet 11735607_a_at) / Fold change (Aza/veh), FGFR1OP (ProbeSet 11751329_s_at) / Fold change (ACY-1035/veh), FGFR1OP (ProbeSet 11751329_s_at) / Fold change (Aza/veh), VPS36 (ProbeSet 11739960_a_at) / Fold change (ACY-1035/veh), VPS36 (ProbeSet 11739960_a_at) / RFU SYPL1 (11715823_x_at) / Fold change /veh SYPL1 (11715823_x_at) / RFU IGFBP7 (11715501_s_at) / Fold change /veh IGFBP7 (11715501_s_at) / RFU REEP3 (11722064_at) / Fold change /veh REEP3 (11722064_at) / RFU IGLL1 (11728026_x_at) / Fold change /veh IGLL1 (11728026_x_at): dose or concentration left out as unconfirmed",
  "conditions": "ProbeSet 11740011_at; LIST B",
  "data": [
    {"smiles": "Nc1ncn([C@@H]2O[C@H](CO)[C@@H](O)[C@H]2O)c(=O)n1", "note": "[azacitidine]", "values": [
      {"measurement": "RFU, ZFP14", "value": 67.74, "unit": "RFU"}
    ]}
  ]
}
